Patent US11478457B2, “Castration-resistant prostate cancer” (priority 2015, dated 2022)
Substitutions are numbered along the chain they refer to. Each block holds one molecule with its values, some of them ahead of it.

Key:
[1] = molecular target: T1, UDP-glucose dehydrogenase (Homo sapiens, UniProt O60701); assay: High throughput screening for inhibitors of UDP-glucose dehydrogenase (NADH fluorescence); assay type: biochemical; details: read-out: POC (Percent of Controls); for inhibition at 25 µg/mL (stock): compound plates 20 μL/well of 25 μg/mL compound in 2.5% DMSO, relative to DMSO negative and UDP-xylose positive controls, higher POC = more inhibitory
T1 sequence (O60701 1-494): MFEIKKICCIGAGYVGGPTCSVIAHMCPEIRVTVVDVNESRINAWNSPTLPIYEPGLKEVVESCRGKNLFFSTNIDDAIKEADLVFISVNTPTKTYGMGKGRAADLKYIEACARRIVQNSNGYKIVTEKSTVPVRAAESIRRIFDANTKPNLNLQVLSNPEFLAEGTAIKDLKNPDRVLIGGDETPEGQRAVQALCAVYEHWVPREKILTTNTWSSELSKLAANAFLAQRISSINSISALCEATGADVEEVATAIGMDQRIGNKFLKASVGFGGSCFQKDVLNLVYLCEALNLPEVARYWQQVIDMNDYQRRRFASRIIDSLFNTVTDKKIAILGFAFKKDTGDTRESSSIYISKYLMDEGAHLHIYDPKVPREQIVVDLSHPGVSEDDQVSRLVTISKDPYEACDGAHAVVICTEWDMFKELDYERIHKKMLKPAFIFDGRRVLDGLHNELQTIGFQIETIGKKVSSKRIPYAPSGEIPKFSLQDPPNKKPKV

[2] = molecular target: T2, T325D (obligate dimer) UGDH (Homo sapiens, UniProt O60701, T325D); assay: Thermal stability of UGDH, T325D; assay type: binding
T2 sequence (O60701 1-494 T325D): T1 sequence (O60701 1-494) with T325D
Description: (§1) FIG. 8A-8D show UDP-xylose effects on the thermal stability of WT, T325A (inducible hexamer), and T325D (obligate dimer) UGDH. […] Statistical analyses were performed using a two-way ANOVA with Bonferroni post tests on PRISM.

WT UGDH [3] = molecular target: T3, WT UGDH (Homo sapiens, UniProt O60701); assay: UGDH inhibition assay (IC50, Ki), WT enzyme; assay type: biochemical; details: for IC50: 50 μM UDP-glc and 1 mM NAD+; for Mode of inhibition: UGDH
T3 sequence (O60701 1-494): T1 sequence (O60701 1-494)
Description: (§2) Ki values were determined by varying [UDP-glc] and holding NAD+ at saturating concentrations.
(§3) IC50 experiments were performed as described above (see e.g., Example 2).

[4] = molecular target: T4, T325A-UGDH (inducible hexamer) (Homo sapiens, UniProt O60701, T325A); assay: UGDH inhibition assay (IC50, Ki), T325A mutant; assay type: biochemical
T4 sequence (O60701 1-494 T325A): T1 sequence (O60701 1-494) with T325A
Description: as §2, §3

WT UGDH [5] = molecular target: T3, WT UGDH; assay: Thermal stability of UGDH, WT; assay type: binding
Description: as §1

UGDH T325A = molecular target: T5, UGDH T325A (Homo sapiens, UniProt O60701, T325A); assay: Limited trypsin proteolysis of UGDH, T325A
T5 sequence (O60701 1-494 T325A): T1 sequence (O60701 1-494) with T325A
Description: (§4) UDP-xylose [20 μM] protected T325A apo from trypsin digestion (red star) and only slightly affected the other forms. […] Each assay contained 10 μg of enzyme, 10 ng Trypsin, and combinations of substrate, cofactor, and UDP-xylose, which was incubated 2.5 h, followed by SDS-PAGE.
(§5) The same procedures from above (see e.g., Example 7) were followed.

[6] = molecular target: T6, T325A (inducible hexamer) UGDH (Homo sapiens, UniProt O60701, T325A); assay: Thermal stability of UGDH, T325A; assay type: binding
T6 sequence (O60701 1-494 T325A): T1 sequence (O60701 1-494) with T325A
Description: as §1

WT UGDH [7] = molecular target: T3, WT UGDH; assay: Limited trypsin proteolysis of UGDH, WT; details: WT ternary complexes; 500 μM
Description: as §4, §5

[8] = molecular target: T7, T325D-UGDH (obligate dimer) (Homo sapiens, UniProt O60701, T325D); assay: UGDH inhibition assay (IC50, Ki), T325D mutant; assay type: biochemical; details: required 4 μM T325D instead of 1 μM
T7 sequence (O60701 1-494 T325D): T1 sequence (O60701 1-494) with T325D
Description: as §2, §3

WT UGDH [9] = molecular target: T3, WT UGDH; assay: UGDH kinetic characterization, WT; assay type: biochemical; details: substrate/cofactor varied
Description: (§6) T325A and T325D are engineered inducible hexameric and obligate dimeric UGDH species, respectively.

T325A-UGDH = molecular target: T8, T325A-UGDH (Homo sapiens, UniProt O60701, T325A); assay: UGDH kinetic characterization, T325A; assay type: biochemical; details: substrate/cofactor varied
T8 sequence (O60701 1-494 T325A): T1 sequence (O60701 1-494) with T325A
Description: as §6

T325D-UGDH = molecular target: T9, T325D-UGDH (Homo sapiens, UniProt O60701, T325D); assay: UGDH kinetic characterization, T325D; assay type: biochemical; details: substrate/cofactor varied
T9 sequence (O60701 1-494 T325D): T1 sequence (O60701 1-494) with T325D
Description: as §6

UGDH T325D = molecular target: T10, UGDH T325D (Homo sapiens, UniProt O60701, T325D); assay: Limited trypsin proteolysis of UGDH, T325D; details: 20 μM, 2.5 h
T10 sequence (O60701 1-494 T325D): T1 sequence (O60701 1-494) with T325D
Description: as §4, §5

SMILES: COc1ccc2[nH]cc(CCNC(=O)c3ccc([N+](=O)[O-])cc3)c2c1
inhibition at 25 µg/mL (stock) [1]: 61%

SMILES: CC(=O)NC(CC(=O)c1ccc(Cl)cc1Cl)C(Cl)(Cl)Cl (stereo not drawn)
inhibition at 25 µg/mL (stock) [1]: 86%

SMILES: COc1cc(/C=C(\C)[N+](=O)[O-])cc(OC)c1OC
inhibition at 25 µg/mL (stock) [1]: 61%

SMILES: CC/C(=C/c1ccc(O)c(OC)c1)[N+](=O)[O-]
inhibition at 25 µg/mL (stock) [1]: 63%

SMILES: COCc1cc(C(C)(C)C)c(O)c(O)c1C(C)(C)C
inhibition at 25 µg/mL (stock) [1]: 56%

SMILES: CN1CCc2c(sc(N)c2C#N)C1
inhibition at 25 µg/mL (stock) [1]: 55%

SMILES: Nc1ncc(C2=C(Cl)C(O)C(Cl)=C(Cl)C2O)s1 (stereo not drawn)
inhibition at 25 µg/mL (stock) [1]: 71%

SMILES: N#CSc1cnc(NC2CCCCC2)s1
inhibition at 25 µg/mL (stock) [1]: 66%

SMILES: O=C(/C=C/c1ccco1)c1ccc(NC(=O)c2ccco2)cc1
inhibition at 25 µg/mL (stock) [1]: 55%

SMILES: CC(=O)C1=C(C)NC(SCc2cccc([N+](=O)[O-])c2)=C(C#N)C1c1cccnc1 (stereo not drawn)
inhibition at 25 µg/mL (stock) [1]: 51%

SMILES: CCc1c(C)sc(NC(=O)c2ccoc2C)c1C(N)=O
inhibition at 25 µg/mL (stock) [1]: 50%

SMILES: NC(=O)c1c(NC(=O)C2CCCO2)sc2c1CCCCCC2 (stereo not drawn)
inhibition at 25 µg/mL (stock) [1]: 74%

SMILES: O=[N+]([O-])c1ccc2[nH]c(-c3ccco3)nc2c1
inhibition at 25 µg/mL (stock) [1]: 46%

SMILES: COc1cc(NC(=O)COc2ccc(C)cc2C)ccc1NC(=O)c1ccco1
inhibition at 25 µg/mL (stock) [1]: 70%

SMILES: O=C1C(Cl)=C(Cl)C(=O)C(Cl)=C1Cl
inhibition at 25 µg/mL [1]: 79%

SMILES: CCC(C)(O)c1nnn(-c2nonc2N)c1C(C)(O)CC (stereo not drawn) [Compound 1, 2,2′-[1-(4-amino-1,2,5-oxadiazol-3-yl)-1H-1,2,3-triazole-4,5-diyl]di(2-butanol)]
Effect on thermal stability ([2]; UDP-glcA complex with T325D): decrease thermal stability | IC50 (WT UGDH [3]; WT-UGDH): 261 ± 6.2 µM | Ki ([4]; varying [UDP-glc], NAD+ at saturating concentrations): 421 ± 118 µM | Effect on thermal stability (WT UGDH [5]; UDP-glcA complex with WT): decrease thermal stability | Effect on trypsin digestion (UGDH T325A; T325A with UDP-glcA and UDP-glcA with NADH, 750 μM): significantly affects | Effect on thermal stability ([6]; UDP-glcA complex with T325A): decrease thermal stability

SMILES: NC(=O)c1ccc[n+]([C@@H]2O[C@H](COP(=O)([O-])OP(=O)(O)OC[C@H]3O[C@@H](n4cnc5c(N)ncnc54)[C@H](O)[C@@H]3O)[C@@H](O)[C@H]2O)c1 [NAD+]
Km (WT UGDH [9]): 1030 ± 215 µM | VMAX (WT UGDH [9]): 206.1 ± 13.0 nmol/min/mg | Km (T325A-UGDH): 1680 ± 455 µM | VMAX (T325A-UGDH): 103 ± 8.5 nmol/min/mg | Km (T325D-UGDH): 1200 ± 290 µM | VMAX (T325D-UGDH): 38.0 ± 2.5 nmol/min/mg

SMILES: O=c1ccn([C@@H]2O[C@H](COP(=O)(O)OP(=O)(O)O[C@H]3OC[C@@H](O)[C@H](O)[C@H]3O)[C@@H](O)[C@H]2O)c(=O)[nH]1 [UDP-xylose, reference compound]
Effect on thermal stability ([2]; NAD+ complex with T325D): significantly increase thermal stability | Mode of inhibition (WT UGDH [3]): competitive inhibitor | IC50 (WT UGDH [3]; WT-UGDH): 0.58 ± 0.09 µM | Ki (WT UGDH [3]; WT-UGDH, varying [UDP-glc], NAD+ at saturating concentrations): 2.67 ± 0.54 µM | Effect on thermal stability (WT UGDH [5]; NAD+ complex with WT): significantly increase thermal stability | Effect on thermal stability (WT UGDH [5]; apo WT): increased the thermal stability | Effect on trypsin digestion (UGDH T325A; T325A apo, 20 μM, 2.5 h): protected | Effect on thermal stability ([6]; NAD+ complex with T325A): significantly increase thermal stability | Effect on thermal stability ([6]; apo T325A): increased the thermal stability | Effect on trypsin digestion (UGDH T325D; T325D apo and UDP-glc forms): did not affect | Effect on trypsin digestion (UGDH T325D; T325D complexes with NAD+, NADH, and UDP-glcA): significantly protected

SMILES: CCC(C)(O)c1nnn(-c2nonc2N)c1C(C)(O)CC (stereo not drawn) [drawing 178]
inhibition at 25 µg/mL (stock) [1]: 101%

The remaining lines, values ahead:

inhibition at 25 µg/mL (stock) [1]: 73%
SMILES: O=C1CC(Sc2nnnn2-c2ccccc2)C(=O)N1c1ccc([N+](=O)[O-])cc1 (stereo not drawn)

inhibition at 25 µg/mL (stock) [1]: 75%
SMILES: Cc1sc(NC(=O)Cc2ccc([N+](=O)[O-])cc2)c(C(N)=O)c1C

inhibition at 25 µg/mL (stock) [1]: 51%
SMILES: Cc1ccccc1-c1nnc(N)s1

inhibition at 25 µg/mL (stock) [1]: 58%
SMILES: CCc1c(C)sc(NC(=O)c2cccc([N+](=O)[O-])c2C)c1C(N)=O

inhibition at 25 µg/mL (stock) [1]: 103%
SMILES: O=C(Nc1ccc2c(c1)OCCO2)c1cc2ccccc2o1

inhibition at 25 µg/mL (stock) [1]: 65%
SMILES: Brc1ccc(C2Nc3ccccc3N2)o1

inhibition at 25 µg/mL (stock) [1]: 50%
SMILES: Cc1cc(=O)n2ccc(N)c(O)c2n1

inhibition at 25 µg/mL (stock) [1]: 52%
SMILES: c1ccc(Nc2nc(-c3ccccc3)[n+](-c3ccccc3)s2)cc1

inhibition at 25 µg/mL (stock) [1]: 58%
SMILES: O=C1CC(Sc2nc3ccccc3s2)C(=O)N1c1ccccc1I (stereo not drawn)

Effect on thermal stability ([2]; T325D, all binary complexes except UDP-glucose): decreasing thermal stability | Effect on trypsin digestion (WT UGDH [7]): significantly affects | Mode of inhibition (WT UGDH [3]): allosteric inhibitor | IC50 (WT UGDH [3]; WT-UGDH): 146.8 ± 1.05 µM | IC50 [4]: 86.98 ± 0.03 µM | Effect on trypsin digestion (UGDH T325A; T325A ternary complexes, 500 μM): significantly affects | Effect on thermal stability ([6]; T325A, all binary complexes except UDP-glucose): decreasing thermal stability | IC50 [8]: 799.4 ± 0.05 µM
SMILES: O=C(O)CCc1ccc(-c2cccs2)o1 [Compound 31, 3-[5-(2-thienyl)-2-furyl]propanoic acid]

inhibition at 25 µg/mL (stock) [1]: 87%
SMILES: O=C(O)CCc1ccc(-c2cccs2)o1 [drawing 227]
